Results from ChEMBL document CHEMBL1201862, “PubChem BioAssay data set” (2004).
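Step 1: Grow cells in 96-well plates. Step 2: Expose to compound for 48 hours at 5 concentrations. Step 3: Interpolate endpoints linearly; if unreached, use highest concentration. Here, GI50 denotes the concentration required for 50% inhibition of growth.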 Active and inactive are the calls of the source. Rule as the data show it: active = GI50 up to about 1.1 µM and inactive = higher.

Experiments:
Experiment in all cases: inhibition of tumour cell growth, NCI panel, 48 h
[1] = test system: A498
[2] = test system: KM12
[3] = test system: SF-295
[4] = test system: SNB-75
[5] = test system: SR
[6] = test system: COLO 205
[7] = test system: SK-MEL-2
[8] = test system: U-251
[9] = test system: BT-549
[10] = test system: PC-3
[11] = test system: M14
[12] = test system: CAKI-1
[13] = test system: OVCAR-8
[14] = test system: IGROV-1
[15] = test system: Hs-578T
[16] = test system: SNB-19
[17] = test system: SK-MEL-5
[18] = test system: HOP-92
[19] = test system: CCRF-CEM

Measured: GI50

CC/C(C)=C1\OC(=O)C(C)C(O)C(Cc2cccnc2)NC(=O)C(NC(=O)c2ncccc2O)C(C)OC1=O (configuration not stated)
inactive: [1] > 100 µM | [2] 42 µM | [3] 44.4 µM | [4] 51.6 µM | [5] > 100 µM | [6] > 100 µM | [7] > 100 µM | [8] > 100 µM | [9] > 100 µM | [10] 50 µM | [11] 70.6 µM | [12] > 100 µM | [13] 63.8 µM | [14] 27.1 µM | [15] 29.7 µM | [16] > 100 µM | [17] > 100 µM

Clc1ccccc1NN(Cc1ccncc1)c1ccccc1Cl
inactive: [1] 19.1 µM | [18] 4.6 µM | [2] 18 µM | [3] 16.7 µM | [4] 17.5 µM | [5] 13.2 µM | [6] 14.4 µM | [7] 14.4 µM | [8] 13.5 µM | [9] 19.1 µM | [10] 15 µM | [11] 17.7 µM | [13] 13.8 µM | [14] 14.6 µM | [15] 18.2 µM | [16] 17.3 µM | [17] 13.9 µM

COc1cc(Br)cc2c1O[C@H]1C(=O)CC3CC21CCN3C (some centres not stated)
inactive: [1] > 100 µM | [2] 72.3 µM | [3] > 100 µM | [5] 33.9 µM | [6] 43.3 µM | [7] > 100 µM | [19] 4.09 µM | [9] 48.4 µM | [10] 64 µM | [11] > 100 µM | [12] 74.1 µM | [13] 19.7 µM | [14] 30.8 µM | [15] 44.7 µM | [16] > 100 µM | [17] > 100 µM

CCOC(=O)NC(=S)c1ccc(O)c2ccccc12
inactive: [1] > 100 µM | [2] 39 µM | [3] 46.3 µM | [5] 25.5 µM | [6] > 100 µM | [7] > 100 µM | [8] > 100 µM | [19] 8.63 µM | [9] 23 µM | [10] > 100 µM | [11] 70.1 µM | [12] 44.2 µM | [13] 34.2 µM | [14] 13.9 µM | [15] 21.7 µM | [16] 95.5 µM | [17] 42.8 µM

COC1=C(OC)C(=O)C(Cc2c(Cl)nc3sc(C)cn23)=C(C)C1=O
inactive: [1] 22.9 µM | [2] 13.3 µM | [3] 16.6 µM | [5] 16.7 µM | [6] 19.6 µM | [7] 22.3 µM | [8] 17.9 µM | [19] 3.02 µM | [9] 18 µM | [10] 16 µM | [11] 17.1 µM | [12] 24.5 µM | [13] 19.1 µM | [14] 17.8 µM | [15] 19.7 µM | [16] 17.9 µM | [17] 11.2 µM

CCOC(=O)C(NCc1ccccc1)(NC(=O)c1ccccc1)C(F)(F)F (configuration not stated)
inactive: [18] 42.3 µM | [2] 81.5 µM | [3] > 100 µM | [4] 68.1 µM | [5] 32.1 µM | [6] > 100 µM | [7] > 100 µM | [8] > 100 µM | [19] 24.2 µM | [9] > 100 µM | [10] > 100 µM | [11] > 100 µM | [12] > 100 µM | [13] 98.9 µM | [14] > 100 µM | [15] > 100 µM | [16] > 100 µM | [17] 84.9 µM
